Measurements: PubChem BioAssay AID1963863 (Molecular Pharmacology Branch, DTP, NCI, 2024)

System: 931267-113-T-J1-PDC KRAS spheroid with HUVEC/MSC, viability
Assay: Anticancer human tumor 931267-113-T-J1-PDC patient-derived colon adenocarcinoma cell line growth inhibition [KRAS2]
Settings: for IC50: curve of first compound; for viability, T/C: stronger effect = lower value
Description: Multicellular complex tumor spheroid response to RAS pathway inhibitors in combination with a targeted agents in patient-derived cell lines with oncogenic KRAS variants from multiple cancer types
A high-throughput screen of multi-cell type tumor spheroids was designed to identify active combinations of targeted small molecules and KRAS pathway inhibitors. Complex spheroids include a stromal component modeled by human endothelial cells (HUVEC) and fibroblasts modeled by human mesenchymal stem cells (MSCs). The concentration ranges selected for each drug and investigational agent were based upon clinically achievable concentrations if the clinical Cmax of the agent was known.
Compounds. The drugs and investigational agents: BI-3406 (NSC825286), BAY-293 (NSC824723), batoprotafib (TNO155; NSC825523), sotorasib (AMG 510; NSC818433), MRTX1257 (NSC819558), elimusertib (BAY 1895344; NSC800525), molibresib (GSK525762; NSC774829), temuterkib (LY3214996; NSC803410), venetoclax (NSC766270), alisertib (NSC759677), olaparib (NSC753686), talazoparib (NSC767125), erdafitinib (NSC781556), ipatasertib (NSC767898), cabozantinib (NSC761068), nintedanib (NSC756659), abemaciclib (NSC768073), docetaxel (NSC628503), trametinib (NSC758246), and sapanisertib (NSC764658) were obtained from the National Cancer Institute (NCI) Developmental Therapeutics Program Chemical Repository. The FDA-approved anticancer drug set is available from the Developmental Therapeutics Program. […] The stock solutions were prepared in dimethyl sulfoxide (DMSO, Sigma-Aldrich, St. Louis, MO, cat. D2650) at 800-fold the tested concentration and stored at -70 degrees C prior to their use. All drugs and investigational agents were tested over a range starting from a high concentration at or near the clinical Cmax and decreasing in half-log increments. If the clinical Cmax for an agent had not been determined, the highest concentration tested was 10 microM.
Cell Culture. All cells were maintained in an incubator at 37 degrees C and 5% CO2 with 95% humidity. The PDC lines were cultured according to standard operating procedures established by the NCI PDMR (https://pdmr.cancer.gov/sops/default.htm). Briefly, all PDCs were thawed and cultured in Matrigel-coated flasks prepared with a working solution of 1X Ham's F-12 nutrient mix, without supplementation (Invitrogen, Waltham, MA, cat. 11765054), 100 U/mL penicillin-streptomycin (Invitrogen, cat. 15140122), and 2.5% Matrigel (Corning Inc., Corning, NY, cat. 354248) for the first three passages. All PDCs were cultured in complete DMEM/F-12 media containing advanced DMEM/F-12 (Invitrogen, cat. 12634028), 4.9% defined fetal bovine serum, heat inactivated (HyClone Laboratories Inc., Logan, UT, cat. SH30070.03HI), 389 ng/mL hydrocortisone (Sigma-Aldrich, cat. H4001), 9.7 ng/mL human EGF recombinant protein (Invitrogen, cat. PHG0313), 23.4 microg/mL adenine (Sigma-Aldrich, cat. A2786), 97.3 U/mL penicillin-streptomycin (Invitrogen, cat. 15140122), 1.9 mM L-glutamine (Invitrogen, cat. 25030081), and 9.7 microM Y-27632 dihydrochloride (Tocris Bioscience, Bristol, United Kingdom, cat. 1254). The PDCs were cultured in complete DMEM/F12 media without 9.7 microM Y-27632 dihydrochloride for at least two passages prior to the screen. The established cell line HOP-62 was cultured in RPMI 1640 medium, HEPES (Invitrogen, cat. 22400105) with 10% defined fetal bovine serum (HyClone Laboratories Inc., cat. SH30070.03) and 2 mM L-glutamine (Invitrogen, cat. 25030081). The pooled donor HUVEC were cultured in endothelial cell growth medium 2 (PromoCell, Heidelberg, Germany, cat. C-22011) and the hMSC were cultured in mesenchymal stem cell growth medium 2 (PromoCell, cat. C-28009). For all experiments, HUVEC and hMSC were used at passages </=5, while the malignant cell lines were used at passages </=15. […]

[1] = second compound 0.1 µM, first compound 0.0316 µM
[2] = second compound 0.1 µM, first compound 0.1 µM
[3] = second compound 0.1 µM, first compound 0.316 µM
[4] = second compound 0.1 µM, first compound 1 µM
[5] = second compound 0.1 µM, first compound 3.16 µM
[6] = second compound 0.1 µM, first compound 10 µM
[7] = second compound 0.316 µM, first compound 0.0316 µM
[8] = second compound 0.316 µM, first compound 0.1 µM
[9] = second compound 0.316 µM, first compound 0.316 µM
[10] = second compound 0.316 µM, first compound 1 µM
[11] = second compound 0.316 µM, first compound 3.16 µM
[12] = second compound 0.316 µM, first compound 10 µM
[13] = second compound 1 µM, first compound 0.0316 µM
[14] = second compound 1 µM, first compound 0.1 µM
[15] = second compound 1 µM, first compound 0.316 µM
[16] = second compound 1 µM, first compound 1 µM
[17] = second compound 1 µM, first compound 3.16 µM
[18] = second compound 1 µM, first compound 10 µM
[19] = second compound 3.16 µM, first compound 0.0316 µM
[20] = second compound 3.16 µM, first compound 0.1 µM
[21] = second compound 3.16 µM, first compound 0.316 µM
[22] = second compound 3.16 µM, first compound 1 µM
[23] = second compound 3.16 µM, first compound 3.16 µM
[24] = second compound 3.16 µM, first compound 10 µM
[25] = second compound 10 µM, first compound 0.0316 µM
[26] = second compound 10 µM, first compound 0.1 µM
[27] = second compound 10 µM, first compound 0.316 µM
[28] = second compound 10 µM, first compound 1 µM
[29] = second compound 10 µM, first compound 3.16 µM
[30] = second compound 10 µM, first compound 10 µM
[31] = second compound 0.1 µM, first compound 0.000316 µM
[32] = second compound 0.1 µM, first compound 0.001 µM
[33] = second compound 0.1 µM, first compound 0.00316 µM
[34] = second compound 0.1 µM, first compound 0.01 µM
[35] = second compound 0.316 µM, first compound 0.000316 µM
[36] = second compound 0.316 µM, first compound 0.001 µM
[37] = second compound 0.316 µM, first compound 0.00316 µM
[38] = second compound 0.316 µM, first compound 0.01 µM
[39] = second compound 1 µM, first compound 0.000316 µM
[40] = second compound 1 µM, first compound 0.001 µM
[41] = second compound 1 µM, first compound 0.00316 µM
[42] = second compound 1 µM, first compound 0.01 µM
[43] = second compound 3.16 µM, first compound 0.000316 µM
[44] = second compound 3.16 µM, first compound 0.001 µM
[45] = second compound 3.16 µM, first compound 0.00316 µM
[46] = second compound 3.16 µM, first compound 0.01 µM
[47] = second compound 10 µM, first compound 0.000316 µM
[48] = second compound 10 µM, first compound 0.001 µM
[49] = second compound 10 µM, first compound 0.00316 µM
[50] = second compound 10 µM, first compound 0.01 µM
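Also: compound exposure lasted 7 days before the readout.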
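For viability, T/C in this document: 100% = DMSO vehicle control viability.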

SMILES	IC50 (second compound 0.1 µM)	IC50 (second compound 0.316 µM)	IC50 (second compound 1 µM)	IC50 (second compound 3.16 µM)	IC50 (second compound 10 µM)	viability, T/C [1]	viability, T/C [2]	viability, T/C [3]	viability, T/C [4]	viability, T/C [5]	viability, T/C [6]	viability, T/C [7]	viability, T/C [8]	viability, T/C [9]	viability, T/C [13]	viability, T/C [14]	viability, T/C [19]	viability, T/C [20]	viability, T/C [25]	viability, T/C [26]	also measured
CC(C)NCC(C(=O)N1CCN(c2ncnc3c2C(C)CC3O)CC1)c1ccc(Cl)cc1 (stereo not given) + C=CC(=O)N1CCN(c2nc(=O)n(-c3c(C)ccnc3C(C)C)c3nc(-c4c(O)cccc4F)c(F)cc23)C(C)C1	6740 nM	5610 nM	4630 nM	6030 nM	1810 nM	109%	97.2%	85.8%	89.1%	71.7%	38.5%	95.5%	83.2%	80.2%	95.9%	96%	83.7%	90.6%	81.4%	71.4%	viability, T/C [10]: 75.1%; viability, T/C [11]: 62.5%; viability, T/C [12]: 38.2%; viability, T/C [15]: 76.8%; viability, T/C [16]: 71.2%; viability, T/C [17]: 68%; viability, T/C [18]: 28.8%; viability, T/C [21]: 80.6%; viability, T/C [22]: 79.1%; viability, T/C [23]: 64.7%; viability, T/C [24]: 38.3%; viability, T/C [27]: 70.5%; viability, T/C [28]: 49.7%; viability, T/C [29]: 50.7%; viability, T/C [30]: 22.4%
CC(C)n1nc(-c2ccc3oc(N)nc3c2)c2c(N)ncnc21 + C=CC(=O)N1CCN(c2nc(=O)n(-c3c(C)ccnc3C(C)C)c3nc(-c4c(O)cccc4F)c(F)cc23)C(C)C1	10.8 nM	9.04 nM	7.94 nM	9.47 nM	8.24 nM	34.3%	26.7%	–	–	–	–	33.6%	27.2%	–	27.9%	25.1%	28.9%	22.3%	25.1%	22%	viability, T/C [31]: 106%; viability, T/C [32]: 89.4%; viability, T/C [33]: 83.5%; viability, T/C [34]: 48.2%; viability, T/C [35]: 116%; viability, T/C [36]: 75.7%; viability, T/C [37]: 77.4%; viability, T/C [38]: 44.8%; viability, T/C [39]: 100%; viability, T/C [40]: 117%; viability, T/C [41]: 87.6%; viability, T/C [42]: 41.2%; viability, T/C [43]: 108%; viability, T/C [44]: 94.4%; viability, T/C [45]: 95.6%; viability, T/C [46]: 47.1%; viability, T/C [47]: 101%; viability, T/C [48]: 86.4%; viability, T/C [49]: 69.7%; viability, T/C [50]: 48.4%
CC1(C)CCC(CN2CCN(c3ccc(C(=O)NS(=O)(=O)c4ccc(NCC5CCOCC5)c([N+](=O)[O-])c4)c(Oc4cnc5[nH]ccc5c4)c3)CC2)=C(c2ccc(Cl)cc2)C1 + C=CC(=O)N1CCN(c2nc(=O)n(-c3c(C)ccnc3C(C)C)c3nc(-c4c(O)cccc4F)c(F)cc23)C(C)C1	2240 nM	1820 nM	1990 nM	2120 nM	1770 nM	107%	85%	84.2%	103%	30.8%	5.11%	86.8%	102%	96.8%	86.5%	104%	76.4%	98%	98.5%	75.2%	viability, T/C [10]: 71.6%; viability, T/C [11]: 29.5%; viability, T/C [12]: 10.2%; viability, T/C [15]: 79.9%; viability, T/C [16]: 91.7%; viability, T/C [17]: 22.5%; viability, T/C [18]: 2.37%; viability, T/C [21]: 109%; viability, T/C [22]: 99%; viability, T/C [23]: 25.7%; viability, T/C [24]: 8.95%; viability, T/C [27]: 83.1%; viability, T/C [28]: 76.5%; viability, T/C [29]: 23.1%; viability, T/C [30]: 3.34%
Cn1ncnc1[C@H]1c2n[nH]c(=O)c3cc(F)cc(c23)N[C@@H]1c1ccc(F)cc1 + C=CC(=O)N1CCN(c2nc(=O)n(-c3c(C)ccnc3C(C)C)c3nc(-c4c(O)cccc4F)c(F)cc23)C(C)C1	> 100 nM	> 100 nM	> 100 nM	> 100 nM	> 100 nM	102%	93%	–	–	–	–	98.9%	72.7%	–	94.6%	80.8%	90.3%	89.8%	96%	102%	viability, T/C [31]: 106%; viability, T/C [32]: 98.3%; viability, T/C [33]: 81.8%; viability, T/C [34]: 92.3%; viability, T/C [35]: 110%; viability, T/C [36]: 110%; viability, T/C [37]: 101%; viability, T/C [38]: 105%; viability, T/C [39]: 117%; viability, T/C [40]: 107%; viability, T/C [41]: 93.1%; viability, T/C [42]: 100%; viability, T/C [43]: 97.7%; viability, T/C [44]: 106%; viability, T/C [45]: 98.8%; viability, T/C [46]: 85.1%; viability, T/C [47]: 117%; viability, T/C [48]: 103%; viability, T/C [49]: 84.3%; viability, T/C [50]: 99.8%
